Test results reported in paper PMC9544171, “Glucose‐dependent insulinotropic polypeptide receptor antagonist treatment causes a reduction in weight gain in ovariectomised high fat diet‐fed mice” (British Journal of Pharmacology, 2022).
Where a SMILES comes first, the peptide text is derived from it. The star is where a group is joined. C16 diacid = O=C(O)CCCCCCCCCCCCCCC(=O)*

Tests used:
[1] = test system: Female ovariectomised C57Bl6/J mice; assay: Terminal plasma adiponectin, triglyceride and glycerol; format: in vivo, mouse; settings: 8 weeks of 300 nmol·kg−1 s.c. daily
Description: A week after ovariectomy, at 10 weeks of age, animals were randomized into groups and placed on a 60 kcal% HFD (HFD, D12492, Research Diets, New Brunswick, NJ, USA) or a control diet (10 kcal% fat, D12450J, Research Diets) for 8 weeks. Group sizes were as follows: Vehicle/control diet, n = 12; mGIPAnt‐1/control diet, n = 12; Vehicle/HFD, n = 11; mGIPAnt‐1/HFD, n = 12. The reduction of animal numbers in group Vehicle/HFD was due to unexpected loss of an animal. Animals received a daily s.c. injection at 4:30 PM with mGIPAnt‐1 (300‐nmol·kg^−1) or vehicle. Body weight and body composition were assessed weekly (LF90II body composition analyzer, Bruker, Billerica, MA, USA). On the final experimental day, animals were anaesthetized with an intraperitoneal injection of 90 mg·kg^−1 ketamine and 10‐mg·kg^−1 xylazine. The microchip was quickly removed from HM‐2 cage animals and a final body composition measurement was performed on all animals. A terminal retro‐orbital blood sample was taken, mice were killed through cervical dislocation and tissues were quickly dissected and weighed.
Insulin levels in intraperitoneal glucose tolerance test and oral glucose tolerance test plasma samples were measured using a mouse insulin ELISA (catalogue no. 10‐1247‐10; Mercodia AB, Uppsala, Sweden). Adiponectin levels in terminal plasma samples were measured using a mouse adiponectin ELISA kit (catalogue no. 80569, Crystal Chem, Elk Grove Village, IL, USA). Adiponectin samples were carefully diluted in kit‐specific assay buffer. The manufacturer's instructions were followed closely.
Triglyceride and free glycerol levels in terminal plasma samples were determined using a triglyceride and free glycerol kit (TR0100‐1KT, Sigma‐Aldrich, St. Louis, MO, USA).

Female C57Bl6/J mice = assay: Intraperitoneal glucose tolerance test, inhibition of exogenous GIP; format: in vivo, mouse
Method: To assess the biological activity of mGIPAnt‐1, we performed an intraperitoneal glucose tolerance test. Mice were fasted for 4 h and given either mGIPAnt‐1 ([…]; s.c.) or vehicle at t = −90 min. Group sizes were as follows:‐ Vehicle + Vehicle, n = 10, Vehicle + GIP, n = 12 and mGIPAnt‐1 + GIP, n = 8. Varying group numbers were due to unsuccessful administration of one of the four compounds as confirmed by measurements of plasma concentrations. At t = −10 all mice were given an intraperitoneal (i.p.) injection with dipeptidyl peptidase‐4 (DPP‐4) inhibitor valine pyrrolidide followed by s.c. injection of either 25 nmol·kg^−1 GIP (Synthetic mouse GIP(1‐42) or vehicle. At t = 0 min, mice received an i.p. injection with 0.5‐g·kg^−1 glucose. Blood glucose was measured from the tail vein using a hand‐held glucometer (Accu‐Chek Mobile, Roche, Basel, Switzerland) at t = 0, 10, 30, 45, 60, 120 and 180 min. Retro‐orbital blood samples (50 μl) were taken using EDTA coated glass capillaries (Vitrex, Vasekær, Denmark) at t = 0, 15, 30 and 60, 120 and 180 min and centrifuged at 3500g, 20 min, 4°C. Plasma was transferred into Eppendorf tubes on dry ice and stored at −20°C for later insulin measurements.
To facilitate comparisons of assay outputs (cAMP assays), the results (of duplicate measurements) were normalized, with the response to 10 pM of GIP(1‐42) set as 100%. All ligand concentrations are reported as log‐transformed. The IC50 log values can be found in Figure 1. In Figure 3c, we have subtracted glucose levels from baseline to show the net differences in glucose levels in our different treatment groups.

mouse GLP‐1 receptor = target: T1, mouse GLP‐1 receptor (Mus musculus, UniProt O35659); assay: cAMP accumulation, agonism in transfected COS‐7 cells; format: cell-based; settings: increasing concentrations, COS‐7, n = 5
T1 construct: host or cells: COS-7
T1 sequence (O35659 22-463): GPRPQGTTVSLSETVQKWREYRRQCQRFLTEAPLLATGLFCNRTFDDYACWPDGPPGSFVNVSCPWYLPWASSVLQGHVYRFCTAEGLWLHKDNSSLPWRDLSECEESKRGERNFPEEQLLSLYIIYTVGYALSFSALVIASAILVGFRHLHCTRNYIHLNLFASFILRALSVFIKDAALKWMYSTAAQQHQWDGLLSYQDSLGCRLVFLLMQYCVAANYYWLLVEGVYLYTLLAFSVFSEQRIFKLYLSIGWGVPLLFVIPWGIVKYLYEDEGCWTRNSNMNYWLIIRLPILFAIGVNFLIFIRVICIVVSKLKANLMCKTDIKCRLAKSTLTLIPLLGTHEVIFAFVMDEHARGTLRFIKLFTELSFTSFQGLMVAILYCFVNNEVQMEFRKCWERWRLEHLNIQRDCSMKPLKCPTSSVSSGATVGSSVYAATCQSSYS
Method: COS‐7 cells were cultured at 10% CO2 and 37°C in Dulbecco's Modified Eagle Medium 1885 supplemented with 10% foetal bovine serum, 2‐mM glutamine, 180‐units ml^−1 penicillin and 45‐g·ml^−1 streptomycin. […] A second set of cells was transiently transfected with either mouse GLP‐1 or GLP‐2 receptor. Following the day after transfection, the cells were seeded in white 96‐well plates with a density of 35.000 cells per well. The next day the assay was initiated by washing the cells with HEPES buffered saline (HBS) followed by an incubation step with HBS and 1‐mM 3‐isobutyl‐1‐methylxanthine for 30 min at 37°C. For agonist studies, the ligands were then added and incubated for an additional 30 min at 37°C. To test for antagonistic properties, the cells were first preincubated for 10 min with the antagonist with subsequent addition of the agonist and incubated for an additional 20 min. The HitHunter® cAMP assay (Eurofins DiscoverX, Fremont, USA) was carried out according to the manufacturer's protocol. Luminescence was measured by PerkinElmer™ Envision 2014 Multilabel Reader.
COS‐7 cells were transiently transfected with (a) mouse GLP1‐R and (b) mouse GLP‐2 R and assayed for cAMP accumulation. […] Data are shown as mean ± SE from n = 5 independent experiments

## CC[C@H](C)[C@H](NC(=O)[C@H](CO)NC(=O)[C@H](Cc1ccc(O)cc1)NC(=O)[C@H](CC(=O)O)NC(=O)[C@H](CO)NC(=O)[C@@H](NC(=O)[C@H](Cc1ccccc1)NC(=O)[C@@H](NC(=O)CNC(=O)[C@@H](N)CCC(=O)O)[C@@H](C)O)[C@@H](C)CC)C(=O)N[C@@H](C)C(=O)N[C@@H](CCSC)C(=O)N[C@@H](CC(=O)O)C(=O)N[C@@H](CCCCN)C(=O)N[C@H](C(=O)N[C@@H](CCCCNC(=O)CCCCCCCCCCCCCCC(=O)O)C(=O)N[C@@H](CCC(N)=O)C(=O)N[C@@H](CCC(N)=O)C(=O)N[C@@H](CC(=O)O)C(=O)N[C@@H](Cc1ccccc1)C(=O)N[C@H](C(=O)N[C@@H](CC(N)=O)C(=O)N[C@@H](Cc1c[nH]c2ccccc12)C(=O)N[C@@H](CC(C)C)C(=O)N[C@@H](CC(C)C)C(=O)N[C@@H](C)C(=O)N[C@@H](CCC(N)=O)C(=O)N[C@@H](CCCCN)C(=O)NCC(=O)N[C@@H](CCCCN)C(=O)N[C@@H](CCCCN)C(=O)N[C@@H](CC(N)=O)C(=O)N[C@@H](CC(=O)O)C(=O)N[C@@H](Cc1c[nH]c2ccccc12)C(=O)N[C@@H](CCCCN)C(=O)N[C@@H](Cc1c[nH]cn1)C(=O)N[C@@H](CC(N)=O)C(=O)O)C(C)C)[C@@H](C)CC [mGIPAnt‐1] (H-EGTFISDYSIAMDKIK(C16 diacid)QQDFVNWLLAQKGKKNDWKHN-OH)
[1]
  terminal plasma glycerol: did not significantly affect
  terminal plasma triglyceride: did not significantly affect
[1]; ELISA
  terminal plasma adiponectin: did not significantly affect
[1]; did not reach significance
  terminal plasma glycerol, HFD versus Vehicle/HFD: trend towards increased glycerol levels
Female C57Bl6/J mice; mGIPAnt‐1 25 μmol·kg−1 s.c. at t = −90 min, 4 h fasted mice, versus the other two groups
  fasting (baseline) blood glucose at t = 0 of IPGTT: significant decrease in fasting blood glucose levels
Female C57Bl6/J mice; mGIPAnt‐1 25 μmol·kg−1 s.c. t = −90 min, GIP 25 nmol·kg−1 s.c. and val‐pyr t = −10 min, glucose 0.5 g·kg−1 i.p., n = 8–12
  baseline‐subtracted glucose curve during IPGTT: did not differ
Female C57Bl6/J mice; t = 120 and 180 min, same dosing as glucose curve
  glucose levels relative to baseline late in IPGTT: glucose levels do not drop below baseline
Mouse GLP‐1 receptor
  activation of mouse GLP‐1 receptor (cAMP): does not induce activation
